Like-named read-outs stand apart in the source and are kept apart here.
Key:
[1] = biological target: T1, DHS2^WT (Arabidopsis thaliana, UniProt Q00218); experiment: DHS enzyme assay, recombinant DHS2^WT; type: biochemical; details: for effect on DHS2 activity (effector screening): FIG. 2D; for inhibition at 1000 µM: effector at 1 mM
T1 construct: without the predicted plastid transit peptide (amino acid residues; 49-525, 34-507, and 52-527, respectively); made in house; host or cells: E. coli Rosetta-2
Protocol: (§1) To generate recombinant DHS proteins the pET28a vectors carrying the A. thaliana DHS1 (AtDHS1), AtDHS2, or AtDHS3 WT sequence without the predicted plastid transit peptide (amino acid residues; 49-525, 34-507, and 52-527, respectively) were expressed in E. coli Rosetta-2 cells and purified using Ni-affinity chromatography, exactly as was conducted previously (9). To generate DHS proteins with individual sota mutations via site-directed mutagenesis, these pET28a plasmid templates were diluted by 500-fold, mixed with 0.04 U/μL Phusion DNA polymerase (Thermo Scientific), 0.2 mM deoxynucleoside triphosphates (dNTPs), 1× Phusion reaction buffer (Thermo Scientific), and 0.5 μM forward and reverse mutagenesis primers (Table 10). The PCR reaction was run using the following protocol: 98° C. for 30 s followed by 20 cycles of 10 s at 98° C., 20 s at 70° C., 4.5 min at 72° C. with a final extension at 72° C. for 10 min. The PCR products were purified using a QIAquick Gel Extraction Kit (QIAGEN), treated with FastDigest DpnI (Thermo Scientific) to digest methylated plasmid template DNA for 20 min at 37° C., and transformed into E. coli cells. The mutagenized pET28a plasmids were sequenced to confirm that no errors were introduced during the mutagenesis process.
(§2) The DHS enzyme assays were conducted using the colorimetric method that we recently described (9). Briefly, the enzyme solution (7.7 μl) containing 50 mM Hepes (pH 7.4) was preincubated with an effector molecule(s) at room temperature for 15 min. For assays using recombinant protein and enzyme fractions isolated from plant leaves, 0.01 to 0.1 μg and approximately 50 μg of proteins were used, respectively. After adding 0.5 μl of 0.1 M dithiothreitol, the samples were further incubated at room temperature for 15 min. During these incubations, the substrate solution containing 50 mM Hepes (pH 7.4), 2 mM MnCl2, 4 mM E4P, and 4 mM PEP at final concentration was preheated at 37° C. The enzyme reaction was started by adding 6.8 μl of the substrate solution, then incubated at 37° C. for 30 min, and terminated by adding 30 μl of 0.6 M trichloroacetic acid. After a brief centrifugation, 5 μl of 200 mM NaIO4 (sodium meta-periodate) in 9 N H3PO4 was added to oxidize the enzymatic product and to incubate at 25° C. for 20 min. To stop the oxidation reaction, 20 μl of 0.75 M NaAsO2 (sodium arsenite), which was dissolved in 0.5 M Na2SO4 and 0.05 M H2SO4, was added and immediately mixed. After 5 min of incubation at room temperature, one-third of the sample solution was transferred to a new tube to be mixed with 50 μl of 40 mM thiobarbituric acid and incubated at 99° C. for 15 min in a thermal cycler. The mixture was added to 600 μl of cyclohexanone in eight-strip solvent-resistant plastic tubes, mixed vigorously, and centrifuged at 4500 g for 3 min to separate water- and cyclohexanone-based layers for the extraction off the developed pink chromophore. The absorbance of the pink supernatant was read at 549 nm with the microplate reader (Infinite 200 PRO, TECAN) to calculate DAHP production with the molar extinction coefficient at 549 nm (ε=549 nm) of 4.5×10^4 M^−1 cm^−1. Reaction mixtures with boiled enzymes were run in parallel and used as negative controls to estimate the background signal.

[2] = biological target: T2, DHS1^WT (Arabidopsis thaliana, UniProt P29976); experiment: DHS enzyme assay (colorimetric), recombinant DHS1^WT; type: biochemical; details: for effect on DHS1 activity (effector screening): FIG. 2D
T2 construct: without the predicted plastid transit peptide (amino acid residues; 49-525, 34-507, and 52-527, respectively); made in house; host or cells: E. coli Rosetta-2
Protocol: as §1, §2

[3] = biological target: T3, DHS1^B4 (Arabidopsis thaliana, UniProt P29976, G244R); experiment: DHS enzyme assay, recombinant DHS1^B4; type: biochemical
T3 construct: without the predicted plastid transit peptide (amino acid residues; 49-525, 34-507, and 52-527, respectively); made in house; host or cells: E. coli
Protocol: as §1, §2

[4] = biological target: T4, Arabidopsis thaliana DHS1 (SEQ ID NO:1) variant DHS1^B4 (sotaB4), G244R (Arabidopsis thaliana, UniProt P29976, G244R); experiment: DHS enzyme assay with effector, DHS1 sotaB4; type: biochemical
T4 construct: without the predicted plastid transit peptide (amino acid residues; 49-525, 34-507, and 52-527, respectively); made in house; host or cells: E. coli
Protocol: as §1, §2

[5] = biological target: T2, DHS1^WT; details: AAAs, chorismate, caffeate: from Yokoyama et al., Plant Cell, 2021, cited from earlier work
[6] = biological target: T5, DHS2^A4 (Arabidopsis thaliana, UniProt Q00218, G222S); experiment: Differential scanning fluorimetry (DSF) protein-ligand affinity analysis, DHS2^A4; type: binding; details: ligand at 1 mM
T5 construct: without the predicted plastid transit peptide (amino acid residues; 49-525, 34-507, and 52-527, respectively); made in house; host or cells: E. coli
Protocol: (§3) To examine the impact of the sota mutations on the interaction between DHS and AAA effectors (FIG. 22), a differential scanning fluorimetry (DSF) analysis (48) was conducted using the recombinant DHS2^WT and DHS2^A4 proteins. […] The fluorescence signal was monitored during the stepwise increase in temperature (1° C. per minute from 25° C. to 95° C.). The Tm was calculated by nonlinear regression analysis using the Boltzmann sigmoidal equation (48).

[7] = biological target: T1, DHS2^WT; experiment: Differential scanning fluorimetry (DSF) protein-ligand affinity analysis, DHS2^WT; type: binding; details: ligand at 1 mM
Protocol: as §3

[8] = biological target: T6, DHS2^A11 (Arabidopsis thaliana, UniProt Q00218, A224T); experiment: DHS enzyme assay, recombinant DHS2^A11; type: biochemical; details: effector up to 1 mM
T6 construct: without the predicted plastid transit peptide (amino acid residues; 49-525, 34-507, and 52-527, respectively); made in house; host or cells: E. coli
Protocol: as §1, §2

[9] = biological target: T7, Arabidopsis thaliana DHS2 (AtDHS2), wild type (DHS2^WT), SEQ ID NO:2 (Arabidopsis thaliana, UniProt Q00218); details: reference 9; cited from earlier work
T7 construct: without the predicted plastid transit peptide (amino acid residues; 49-525, 34-507, and 52-527, respectively); made in house; host or cells: E. coli Rosetta-2

[10] = biological target: DHS3^H1; experiment: DHS enzyme assay, recombinant DHS3^H1; type: biochemical, Arabidopsis thaliana
Protocol: as §1, with “To” for “To generate recombinant DHS proteins the pET28a vectors carrying the A. thaliana DHS1 (AtDHS1), AtDHS2, or AtDHS3 WT sequence without the predicted plastid transit peptide (amino acid residues; 49-525, 34-507, and 52-527, respectively) were expressed in E. coli Rosetta-2 cells and purified using Ni-affinity chromatography, exactly as was conducted previously (9). To”
(§4) The DHS enzyme assays were conducted using the colorimetric method that we recently described (9). Briefly, the enzyme solution (7.7 μl) containing 50 mM Hepes (pH 7.4) was preincubated with an effector molecule(s) at room temperature for 15 min. For assays using recombinant protein and enzyme fractions isolated from plant leaves, 0.01 to 0.1 μg and approximately 50 μg of proteins were used, respectively. After adding 0.5 μl of 0.1 M dithiothreitol, the samples were further incubated at room temperature for 15 min. During these incubations, the substrate solution containing 50 mM Hepes (pH 7.4), 2 mM MnCl2, 4 mM E4P, and 4 mM PEP at final concentration was preheated at 37° C. The enzyme reaction was started by adding 6.8 μl of the substrate solution, then incubated at 37° C. for 30 min, and terminated by adding 30 μl of 0.6 M trichloroacetic acid. After a brief centrifugation, 5 μl of 200 mM NaIO4 (sodium meta-periodate) in 9 N H3PO4 was added to oxidize the enzymatic product and to incubate at 25° C. for 20 min. To stop the oxidation reaction, 20 μl of 0.75 M NaAsO2 (sodium arsenite), which was dissolved in 0.5 M Na2SO4 and 0.05 M H2SO4, was added and immediately mixed. […]

[11] = biological target: T8, DHS2^F1 (Arabidopsis thaliana, UniProt Q00218, L136F); experiment: DHS enzyme assay, recombinant DHS2^F1; type: biochemical; details: effector up to 1 mM
T8 construct: without the predicted plastid transit peptide (amino acid residues; 49-525, 34-507, and 52-527, respectively); made in house; host or cells: E. coli
Protocol: as §1, §2

[12] = system: DHS3^WT; details: AAAs: from Yokoyama et al., Plant Cell, 2021; cited from earlier work
[13] = biological target: T9, Arabidopsis thaliana DHS2 (SEQ ID NO:2) variant DHS2^A4 (sotaA4), G222S (Arabidopsis thaliana, UniProt Q00218, G222S); experiment: Differential scanning fluorimetry protein-ligand affinity analysis, DHS2 sotaA4; type: binding; details: ligand at 1 mM
T9 construct: without the predicted plastid transit peptide (amino acid residues; 49-525, 34-507, and 52-527, respectively); made in house; host or cells: E. coli
Protocol: (A) Simplified pathway map of AAAs and AAA-derived metabolites used in the effector screening. […] Data are means±SEM (n=3 independent assays).
as §3

[14] = biological target: DHS3^G1; experiment: DHS enzyme assay, recombinant DHS3^G1; type: biochemical, Arabidopsis thaliana
Protocol: as §1, with “To” for “To generate recombinant DHS proteins the pET28a vectors carrying the A. thaliana DHS1 (AtDHS1), AtDHS2, or AtDHS3 WT sequence without the predicted plastid transit peptide (amino acid residues; 49-525, 34-507, and 52-527, respectively) were expressed in E. coli Rosetta-2 cells and purified using Ni-affinity chromatography, exactly as was conducted previously (9). To”
as §4

[15] = biological target: T9, Arabidopsis thaliana DHS2 (SEQ ID NO:2) variant DHS2^A4 (sotaA4), G222S; experiment: biochemical; type: biochemical; details: up to 1 mM Tyr, Trp (FIG. 2C); shikimate, arogenate, prephenate at 1 mM (FIG. 21A)
Protocol: as §1, §2

[16] = biological target: T5, DHS2^A4; type: biochemical; details: effector up to 1 mM
Protocol: as §1, §2

[17] = biological target: T10, Arabidopsis thaliana DHS1 (AtDHS1), wild type (DHS1^WT), SEQ ID NO:1 (Arabidopsis thaliana, UniProt P29976); experiment: DHS enzyme assay with effector, Arabidopsis DHS1 WT; type: biochemical; details: effector screening (FIG. 2D)
T10 construct: without the predicted plastid transit peptide (amino acid residues; 49-525, 34-507, and 52-527, respectively); made in house; host or cells: E. coli Rosetta-2
Protocol: as §1, with “To” for “To generate recombinant DHS proteins the pET28a vectors carrying the A. thaliana DHS1 (AtDHS1), AtDHS2, or AtDHS3 WT sequence without the predicted plastid transit peptide (amino acid residues; 49-525, 34-507, and 52-527, respectively) were expressed in E. coli Rosetta-2 cells and purified using Ni-affinity chromatography, exactly as was conducted previously (9). To”
as §4

T9 sequence (Q00218 34-507 G222S): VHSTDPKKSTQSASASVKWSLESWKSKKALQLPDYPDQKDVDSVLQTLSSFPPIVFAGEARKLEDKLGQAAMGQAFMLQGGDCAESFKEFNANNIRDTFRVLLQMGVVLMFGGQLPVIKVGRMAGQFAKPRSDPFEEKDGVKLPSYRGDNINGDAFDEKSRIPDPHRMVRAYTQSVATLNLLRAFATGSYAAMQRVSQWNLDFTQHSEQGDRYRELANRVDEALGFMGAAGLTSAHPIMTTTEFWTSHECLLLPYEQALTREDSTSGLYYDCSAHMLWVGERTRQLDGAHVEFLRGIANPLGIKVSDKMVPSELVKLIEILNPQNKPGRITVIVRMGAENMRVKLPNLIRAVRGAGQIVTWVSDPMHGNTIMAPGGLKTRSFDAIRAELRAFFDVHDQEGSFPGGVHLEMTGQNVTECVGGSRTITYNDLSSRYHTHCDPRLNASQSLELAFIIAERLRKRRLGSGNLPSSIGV
T5 sequence (Q00218 34-507 G222S): as above
T1 sequence (Q00218 34-507): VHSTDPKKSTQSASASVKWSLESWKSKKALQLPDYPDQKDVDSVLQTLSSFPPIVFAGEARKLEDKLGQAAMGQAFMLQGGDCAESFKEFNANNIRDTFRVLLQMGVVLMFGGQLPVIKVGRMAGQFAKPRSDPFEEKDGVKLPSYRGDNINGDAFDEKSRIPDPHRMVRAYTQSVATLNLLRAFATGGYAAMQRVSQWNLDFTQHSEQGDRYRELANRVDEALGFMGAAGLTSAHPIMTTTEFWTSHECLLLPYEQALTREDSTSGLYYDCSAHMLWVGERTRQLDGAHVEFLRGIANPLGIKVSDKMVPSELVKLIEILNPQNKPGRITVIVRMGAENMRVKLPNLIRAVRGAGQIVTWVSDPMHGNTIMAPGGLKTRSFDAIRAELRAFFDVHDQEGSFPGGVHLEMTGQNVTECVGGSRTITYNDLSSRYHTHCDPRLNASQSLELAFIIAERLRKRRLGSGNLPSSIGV
T7 sequence (Q00218 34-507): as above
T3 sequence (P29976 49-525 G244R): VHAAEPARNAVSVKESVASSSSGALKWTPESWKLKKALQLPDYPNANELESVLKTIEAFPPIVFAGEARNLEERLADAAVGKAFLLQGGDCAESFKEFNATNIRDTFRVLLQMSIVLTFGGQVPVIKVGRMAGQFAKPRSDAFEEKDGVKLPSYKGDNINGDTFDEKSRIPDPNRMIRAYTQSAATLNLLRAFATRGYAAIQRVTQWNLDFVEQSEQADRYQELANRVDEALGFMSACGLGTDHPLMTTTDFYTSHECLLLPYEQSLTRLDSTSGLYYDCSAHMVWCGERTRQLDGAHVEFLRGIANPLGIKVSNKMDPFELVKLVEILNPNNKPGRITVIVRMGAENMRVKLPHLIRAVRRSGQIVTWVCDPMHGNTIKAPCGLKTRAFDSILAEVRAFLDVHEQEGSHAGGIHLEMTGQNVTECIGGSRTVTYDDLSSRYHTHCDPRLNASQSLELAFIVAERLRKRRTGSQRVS
T2 sequence (P29976 49-525): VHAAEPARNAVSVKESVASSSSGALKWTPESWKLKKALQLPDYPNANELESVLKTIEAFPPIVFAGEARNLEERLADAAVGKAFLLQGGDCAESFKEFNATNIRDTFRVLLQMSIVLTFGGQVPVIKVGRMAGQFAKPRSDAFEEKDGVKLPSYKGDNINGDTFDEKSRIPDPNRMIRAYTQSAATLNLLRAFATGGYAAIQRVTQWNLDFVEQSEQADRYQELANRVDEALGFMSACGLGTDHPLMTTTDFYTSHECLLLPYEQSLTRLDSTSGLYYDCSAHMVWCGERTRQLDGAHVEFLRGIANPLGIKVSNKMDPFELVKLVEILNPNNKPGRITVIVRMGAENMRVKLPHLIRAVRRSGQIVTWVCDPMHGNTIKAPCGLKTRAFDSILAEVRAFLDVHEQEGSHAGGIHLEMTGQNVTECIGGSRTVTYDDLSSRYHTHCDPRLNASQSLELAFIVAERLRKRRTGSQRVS
T10 sequence (P29976 49-525): as above
T8 sequence (Q00218 34-507 L136F): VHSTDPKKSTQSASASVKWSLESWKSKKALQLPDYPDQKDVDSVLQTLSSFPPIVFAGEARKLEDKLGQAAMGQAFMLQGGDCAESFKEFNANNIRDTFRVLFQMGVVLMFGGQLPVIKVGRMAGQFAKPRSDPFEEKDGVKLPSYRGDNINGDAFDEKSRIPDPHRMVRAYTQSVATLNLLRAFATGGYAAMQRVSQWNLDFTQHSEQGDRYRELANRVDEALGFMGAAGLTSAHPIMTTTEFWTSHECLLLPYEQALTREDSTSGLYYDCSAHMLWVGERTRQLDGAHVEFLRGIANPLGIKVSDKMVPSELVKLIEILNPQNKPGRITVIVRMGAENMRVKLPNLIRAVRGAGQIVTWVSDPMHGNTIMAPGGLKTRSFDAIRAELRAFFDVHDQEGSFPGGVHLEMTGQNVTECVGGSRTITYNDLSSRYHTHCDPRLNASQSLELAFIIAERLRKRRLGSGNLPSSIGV
T6 sequence (Q00218 34-507 A224T): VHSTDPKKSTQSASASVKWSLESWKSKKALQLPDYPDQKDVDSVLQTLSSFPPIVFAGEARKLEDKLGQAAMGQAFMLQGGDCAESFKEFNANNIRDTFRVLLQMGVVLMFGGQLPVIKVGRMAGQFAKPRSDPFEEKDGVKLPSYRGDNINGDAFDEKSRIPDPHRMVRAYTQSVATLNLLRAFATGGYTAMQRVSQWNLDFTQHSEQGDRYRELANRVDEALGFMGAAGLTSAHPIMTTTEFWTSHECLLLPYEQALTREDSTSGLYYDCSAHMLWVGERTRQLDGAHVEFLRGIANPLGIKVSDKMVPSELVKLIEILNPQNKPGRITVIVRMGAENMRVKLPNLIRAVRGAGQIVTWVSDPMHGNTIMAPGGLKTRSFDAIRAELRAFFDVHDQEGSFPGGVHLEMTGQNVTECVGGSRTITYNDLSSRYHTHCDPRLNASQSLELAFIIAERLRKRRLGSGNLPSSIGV
T4 sequence (P29976 49-525 G244R): as the sequence (P29976 49-525 G244R) above

Nc1ccccc1C(=O)[O-].[Na+] [Anthranilate]
effect on DHS2 activity (effector screening) [1]: slight reduction | effect on DHS1 activity (effector screening) [2]: did not affect the activity

O=C(O)/C=C/c1ccc(O)c(O)c1 [Caffeate]
inhibition of DHS1^B4 activity [3]: still strongly inhibited | IC50 ([3]; read-out: IC50 of effector molecule on DHS1^B4): 65.2 µM | IC50 [4]: 65.2 µM | IC50 ([5]; read-out: IC50 of effector molecule on DHS1^WT): 108 µM

O=C(O)Cc1c[nH]c2ccccc12 [IAA, indole-3-acetate]
effect on DHS2 activity (effector screening) [1]: inhibit | effect on DHS1 activity (effector screening) [2]: inhibit

O=C(O)CCc1c[nH]c2ccccc12 [Indole-3-propionic acid]
IC50 [2]: 2060 µM | IC50 [3]: 2000 µM

N[C@@H](Cc1ccccc1)C(=O)O [Phe, phenylalanine]
effect on melting temperature (Tm) / binding of DHS2^A4 [6]: no impact on the Tm | effect on melting temperature (Tm) of DHS2^WT [7]: no impact on the Tm

N[C@@H](Cc1ccc(O)cc1)C(=O)O [Tyr, tyrosine]
inhibition of DHS2^A11 activity [8]: not inhibited | inhibition of DHS2 [9]: inhibit Arabidopsis DHS2 | IC50 of effector molecule on DHS3^H1 [10]: Not inhibited | inhibition of DHS2^F1 activity [11]: not inhibited | IC50 of effector molecule on DHS3^WT [12]: Not inhibited | IC50 of effector molecule on DHS1^B4 ([3]; recombinant enzyme): Not inhibited | binding (DSF) [13]: still binds Tyr and Trp | IC50 of effector molecule on DHS3^G1 [14]: Not inhibited | IC50 of effector molecule on DHS1^WT [5]: Not inhibited

OCCc1ccc(O)cc1 [Tyrosol]
inhibition at 1000 µM [1]: ~30%

N[C@@H](CC1(C(=O)O)C=CC(O)C=C1)C(=O)O (stereo partly drawn) [arogenate]
inhibition of DHS2 [9]: slightly inhibit DHS2 | inhibition of DHS2^A4 [15]: still inhibited | inhibition of DHS2^A4 activity [16]: still inhibited

c1ccc2[nH]ccc2c1 [indole]
inhibition of DHS1^WT activity [17]: did not affect the activity of DHS1

O=C(O)C(=O)CC1(C(=O)O)C=CC(O)C=C1 (stereo not drawn) [prephenate]
inhibition of DHS2 [9]: slightly inhibit DHS2 | inhibition of DHS2^A4 [15]: still inhibited | inhibition of DHS2^A4 activity [16]: still inhibited

O=C(O)C1=C[C@@H](O)[C@@H](O)[C@H](O)C1 [shikimate]
inhibition of DHS2 [9]: slightly inhibit DHS2 | inhibition of DHS2^A4 [15]: still inhibited | inhibition of DHS2^A4 activity [16]: still inhibited

NCCc1c[nH]c2ccccc12 [tryptamine]
effect on DHS2 activity (effector screening) [1]: slight reduction | effect on DHS1 activity (effector screening) [2]: did not affect the activity | inhibition of DHS1^WT activity [17]: did not affect the activity of DHS1

NCCc1ccc(O)cc1 [tyramine]
inhibition at 1000 µM [1]: ~30%

Reference: patent US20250043299A1, “POINT MUTATIONS THAT BOOST AROMATIC AMINO ACID PRODUCTION AND CO2 ASSIMILATION IN PLANTS” (Wisconsin Alumni Research Foundation, priority 2021, published 2025)
